Experimental data published in PMC12102759 (Protein Science : A Publication of the Protein Society, 2025).
Like-named read-outs stand apart in the source and are kept apart here.

System: G3BP1 NFT2
Assay type: binding, human
Details: library DMS-CoV, bait G3BP1 NFT2, prey N, listed as aa = residue placed at this position, column sums to 1

Sequence: RNAPRITFGGPSDSTG T7H (RNAPRIHFGGPSDSTG)
- DMS PSSM value, T (position 7) (peptide RNAPRITFGGPSDSTG): 0

Sequence: APRITFGGPSDSTGSN D11P (APRITFGGPSPSTGSN)
- DMS PSSM value, D (position 11) (peptide APRITFGGPSDSTGSN): 0.007134

Sequence: APRITFGGPSDSTGSN S15M (APRITFGGPSDSTGMN)
- DMS PSSM value, S (position 15) (peptide APRITFGGPSDSTGSN): 0.006693

Sequence: APRITFGGPSDSTGSN R3E (APEITFGGPSDSTGSN)
- DMS PSSM value, R (position 3) (peptide APRITFGGPSDSTGSN): 0.01584

Sequence: RNAPRITFGGPSDSTG A3T (RNTPRITFGGPSDSTG)
- DMS PSSM value, A (position 3) (peptide RNAPRITFGGPSDSTG): 0

Sequence: APRITFGGPSDSTGSN T5V (APRIVFGGPSDSTGSN)
- DMS PSSM value, T (position 5) (peptide APRITFGGPSDSTGSN): 0

Sequence: APRITFGGPSDSTGSN A1H (HPRITFGGPSDSTGSN)
- DMS PSSM value, A (position 1) (peptide APRITFGGPSDSTGSN): 0.001405

Sequence: RNAPRITFGGPSDSTG I6G (RNAPRGTFGGPSDSTG)
- DMS PSSM value, I (position 6) (peptide RNAPRITFGGPSDSTG): 0

Sequence: APRITFGGPSDSTGSN R3F (APFITFGGPSDSTGSN)
- DMS PSSM value, R (position 3) (peptide APRITFGGPSDSTGSN): 0.003092

Sequence: APRITFGGPSDSTGSN P2D (ADRITFGGPSDSTGSN)
- DMS PSSM value, P (position 2) (peptide APRITFGGPSDSTGSN): 0.06205

Sequence: RNAPRITFGGPSDSTG N2M (RMAPRITFGGPSDSTG)
- DMS PSSM value, N (position 2) (peptide RNAPRITFGGPSDSTG): 0

Sequence: RNAPRITFGGPSDSTG G16N (RNAPRITFGGPSDSTN)
- DMS PSSM value, G (position 16) (peptide RNAPRITFGGPSDSTG): 1

Sequence: RNAPRITFGGPSDSTG R5Y (RNAPYITFGGPSDSTG)
- DMS PSSM value, R (position 5) (peptide RNAPRITFGGPSDSTG): 0.03289

Sequence: APRITFGGPSDSTGSN T13L (APRITFGGPSDSLGSN)
- DMS PSSM value, T (position 13) (peptide APRITFGGPSDSTGSN): 0.003677

Sequence: APRITFGGPSDSTGSN S12K (APRITFGGPSDKTGSN)
- DMS PSSM value, S (position 12) (peptide APRITFGGPSDSTGSN): 0

Sequence: RNAPRITFGGPSDSTG T15D (RNAPRITFGGPSDSDG)
- DMS PSSM value, T (position 15) (peptide RNAPRITFGGPSDSTG): 0

Sequence: APRITFGGPSDSTGSN S12I (APRITFGGPSDITGSN)
- DMS PSSM value, S (position 12) (peptide APRITFGGPSDSTGSN): 0.4295

Sequence: RNAPRITFGGPSDSTG G9S (RNAPRITFSGPSDSTG)
- DMS PSSM value, G (position 9) (peptide RNAPRITFGGPSDSTG): 0

Sequence: APRITFGGPSDSTGSN I4H (APRHTFGGPSDSTGSN)
- DMS PSSM value, I (position 4) (peptide APRITFGGPSDSTGSN): 0

Sequence: APRITFGGPSDSTGSN R3H (APHITFGGPSDSTGSN)
- DMS PSSM value, R (position 3) (peptide APRITFGGPSDSTGSN): 0.008447

Sequence: APRITFGGPSDSTGSN T5F (APRIFFGGPSDSTGSN)
- DMS PSSM value, T (position 5) (peptide APRITFGGPSDSTGSN): 0

Sequence: APRITFGGPSDSTGSN D11F (APRITFGGPSFSTGSN)
- DMS PSSM value, D (position 11) (peptide APRITFGGPSDSTGSN): 0.001494

Sequence: APRITFGGPSDSTGSN P9I (APRITFGGISDSTGSN)
- DMS PSSM value, P (position 9) (peptide APRITFGGPSDSTGSN): 0.01105

Sequence: APRITFGGPSDSTGSN G14A (APRITFGGPSDSTASN)
- DMS PSSM value, G (position 14) (peptide APRITFGGPSDSTGSN): 0.007074

Sequence: RNAPRITFGGPSDSTG S12A (RNAPRITFGGPADSTG)
- DMS PSSM value, S (position 12) (peptide RNAPRITFGGPSDSTG): 0.3916

Sequence: RNAPRITFGGPSDSTG P4M (RNAMRITFGGPSDSTG)
- DMS PSSM value, P (position 4) (peptide RNAPRITFGGPSDSTG): 0

Sequence: APRITFGGPSDSTGSN P2H (AHRITFGGPSDSTGSN)
- DMS PSSM value, P (position 2) (peptide APRITFGGPSDSTGSN): 0

Sequence: APRITFGGPSDSTGSN S15V (APRITFGGPSDSTGVN)
- DMS PSSM value, S (position 15) (peptide APRITFGGPSDSTGSN): 0.03856

Sequence: APRITFGGPSDSTGSN G14R (APRITFGGPSDSTRSN)
- DMS PSSM value, G (position 14) (peptide APRITFGGPSDSTGSN): 0.002725

Sequence: RNAPRITFGGPSDSTG S12G (RNAPRITFGGPGDSTG)
- DMS PSSM value, S (position 12) (peptide RNAPRITFGGPSDSTG): 0

Sequence: APRITFGGPSDSTGSN I4G (APRGTFGGPSDSTGSN)
- DMS PSSM value, I (position 4) (peptide APRITFGGPSDSTGSN): 0

Sequence: RNAPRITFGGPSDSTG G16H (RNAPRITFGGPSDSTH)
- DMS PSSM value, G (position 16) (peptide RNAPRITFGGPSDSTG): 0

Sequence: RNAPRITFGGPSDSTG S14D (RNAPRITFGGPSDDTG)
- DMS PSSM value, S (position 14) (peptide RNAPRITFGGPSDSTG): 0

Sequence: RNAPRITFGGPSDSTG T15Q (RNAPRITFGGPSDSQG)
- DMS PSSM value, T (position 15) (peptide RNAPRITFGGPSDSTG): 0

Sequence: APRITFGGPSDSTGSN D11H (APRITFGGPSHSTGSN)
- DMS PSSM value, D (position 11) (peptide APRITFGGPSDSTGSN): 0.001494

Sequence: RNAPRITFGGPSDSTG P11R (RNAPRITFGGRSDSTG)
- DMS PSSM value, P (position 11) (peptide RNAPRITFGGPSDSTG): 0

Sequence: APRITFGGPSDSTGSN F6G (APRITGGGPSDSTGSN)
- DMS PSSM value, F (position 6) (peptide APRITFGGPSDSTGSN): 0

Sequence: APRITFGGPSDSTGSN P2R (ARRITFGGPSDSTGSN)
- DMS PSSM value, P (position 2) (peptide APRITFGGPSDSTGSN): 0

Sequence: RNAPRITFGGPSDSTG F8L (RNAPRITLGGPSDSTG)
- DMS PSSM value, F (position 8) (peptide RNAPRITFGGPSDSTG): 0

Sequence: APRITFGGPSDSTGSN S10A (APRITFGGPADSTGSN)
- DMS PSSM value, S (position 10) (peptide APRITFGGPSDSTGSN): 0.0189

Sequence: RNAPRITFGGPSDSTG I6M (RNAPRMTFGGPSDSTG)
- DMS PSSM value, I (position 6) (peptide RNAPRITFGGPSDSTG): 0

Sequence: RNAPRITFGGPSDSTG N2V (RVAPRITFGGPSDSTG)
- DMS PSSM value, N (position 2) (peptide RNAPRITFGGPSDSTG): 0

Sequence: APRITFGGPSDSTGSN S10E (APRITFGGPEDSTGSN)
- DMS PSSM value, S (position 10) (peptide APRITFGGPSDSTGSN): 0.06961

Sequence: APRITFGGPSDSTGSN A1F (FPRITFGGPSDSTGSN)
- DMS PSSM value, A (position 1) (peptide APRITFGGPSDSTGSN): 0.0004523

Sequence: APRITFGGPSDSTGSN S12E (APRITFGGPSDETGSN)
- DMS PSSM value, S (position 12) (peptide APRITFGGPSDSTGSN): 0.0009188

Sequence: APRITFGGPSDSTGSN G7M (APRITFMGPSDSTGSN)
- DMS PSSM value, G (position 7) (peptide APRITFGGPSDSTGSN): 0

Sequence: APRITFGGPSDSTGSN R3I (APIITFGGPSDSTGSN)
- DMS PSSM value, R (position 3) (peptide APRITFGGPSDSTGSN): 0.2843

Sequence: APRITFGGPSDSTGSN S10K (APRITFGGPKDSTGSN)
- DMS PSSM value, S (position 10) (peptide APRITFGGPSDSTGSN): 0.006118

Sequence: APRITFGGPSDSTGSN P9Q (APRITFGGQSDSTGSN)
- DMS PSSM value, P (position 9) (peptide APRITFGGPSDSTGSN): 0

Sequence: RNAPRITFGGPSDSTG G9F (RNAPRITFFGPSDSTG)
- DMS PSSM value, G (position 9) (peptide RNAPRITFGGPSDSTG): 0

Sequence: APRITFGGPSDSTGSN S10I (APRITFGGPIDSTGSN)
- DMS PSSM value, S (position 10) (peptide APRITFGGPSDSTGSN): 0.2604

Sequence: APRITFGGPSDSTGSN P2T (ATRITFGGPSDSTGSN)
- DMS PSSM value, P (position 2) (peptide APRITFGGPSDSTGSN): 0
